In one test the target is human CB2 (Homo sapiens, UniProt P34972). Description: Cyclic AMP assay (HTRF), CHO cells expressing human CB2. In kind it is cell-based. On the procedure: (§1) Chinese Hamster Ovary cells (CHO) expressing human CB1 or human CB2 (3.3×10^5 cells/ml) were preincubated for 15 min at room temperature with tested agonist and 3-isobutyl-1-methylxanthine (IBMX; 200 μM) in phosphate buffered saline containing 1 mg/ml BSA (assay buffer) followed by 30 min incubation with forskolin in a total volume of 10 μl. The optimal forskolin concentration for each cell line was established in a separate experiment and adjusted to stimulate 70% of maximal cAMP response. cAMP content was measured using an HTRF assay (CisBio) according to the manufacturer's two step protocol.
(In general: Time-resolved FRET reads energy transfer from a long-lived donor to a nearby acceptor.)

The next test deals with human CB1 (Homo sapiens, UniProt P21554). Description: Cyclic AMP assay (HTRF), CHO cells expressing human CB1. The test is classed as cell-based. On the procedure: as §1
The mark [1] stands for this setting: IP of tested agonist, CHO cells expressing human CB2, forskolin-stimulated cAMP, HTRF, read-out: CB2 (HTRF).
Where [2] appears, read: IP of tested agonist, CHO cells expressing human CB1, forskolin-stimulated cAMP, HTRF, read-out: CB1 (HTRF).

Read-outs that look alike come from different tables or passages of the source.

Sequence of human CB2 (P34972 whole entry): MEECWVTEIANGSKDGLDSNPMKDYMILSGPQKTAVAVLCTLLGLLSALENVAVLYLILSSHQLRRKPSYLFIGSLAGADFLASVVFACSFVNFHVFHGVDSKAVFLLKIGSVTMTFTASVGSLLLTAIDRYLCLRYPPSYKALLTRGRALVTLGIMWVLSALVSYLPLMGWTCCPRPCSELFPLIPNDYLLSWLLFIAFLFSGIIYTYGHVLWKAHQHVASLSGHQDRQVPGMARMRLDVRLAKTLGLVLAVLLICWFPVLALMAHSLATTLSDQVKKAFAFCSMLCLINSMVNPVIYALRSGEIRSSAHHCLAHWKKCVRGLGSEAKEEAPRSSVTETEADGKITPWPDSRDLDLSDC
Sequence of human CB1 (P21554 whole entry): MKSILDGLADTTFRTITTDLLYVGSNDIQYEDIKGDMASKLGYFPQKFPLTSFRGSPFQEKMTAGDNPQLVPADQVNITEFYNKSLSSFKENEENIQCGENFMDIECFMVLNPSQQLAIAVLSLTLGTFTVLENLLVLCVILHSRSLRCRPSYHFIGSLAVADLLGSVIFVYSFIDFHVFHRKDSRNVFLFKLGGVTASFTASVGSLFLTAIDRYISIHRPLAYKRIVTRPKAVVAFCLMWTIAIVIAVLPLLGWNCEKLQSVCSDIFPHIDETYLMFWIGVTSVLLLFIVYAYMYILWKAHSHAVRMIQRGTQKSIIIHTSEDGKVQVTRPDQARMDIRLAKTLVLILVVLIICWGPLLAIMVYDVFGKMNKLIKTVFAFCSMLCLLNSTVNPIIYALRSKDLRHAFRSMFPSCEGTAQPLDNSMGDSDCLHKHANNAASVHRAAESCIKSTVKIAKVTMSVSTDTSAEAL

As to `CCCCOc1ncccc1-c1nc(-c2ccc(Cl)cc2)no1` [Example I-3], the results for the EC50 on human CB2 and at human CB1 were 0.085 µM and more than 17 µM, respectively.
Regarding `CCCCOc1ncccc1-c1nc(-c2cccc(Cl)c2Cl)no1` [Example I-4], the EC50 at human CB2 is 0.003 µM; at human CB1, 0.309 µM.
Regarding `CCCCOc1ncccc1-c1nc(-c2c(Cl)cccc2Cl)no1` [Example I-5], the EC50 on human CB2 was determined as 0.004 µM; on human CB1, 0.114 µM.
Turning to `CS(=O)(=O)C1CCN(c2ncccc2-c2cc(-c3cccc(F)c3)n[nH]2)CC1` [Example V-4], the EC50 at human CB2 (setting [1]) was 0.068 µM; at human CB1 (setting [2]), 8.75 µM.
For the compound `NC(=O)C1CCN(c2ncccc2-c2cc(-c3cccc(F)c3)n[nH]2)CC1` [Example V-5], the figures for the EC50 on human CB2 (setting [1]) and on human CB1 (setting [2]) were 0.717 µM and more than 17 µM, respectively.
`COCCOc1ncccc1-c1nc(-c2cccc(Cl)c2)no1` [II-2]: the EC50 at human CB2 (setting [1]) was 0.272 µM; at human CB1 (setting [2]) it was more than 17 µM.
In the case of `CC(C)(C)COc1ncccc1-c1nc(-c2cccc(Cl)c2)no1` [II-5], the EC50 at human CB2 (setting [1]) is 0.508 µM; at human CB1 (setting [2]), more than 17 µM.
The matching figures for `CCCCOc1ncccc1-c1nc(-c2ccccc2)c[nH]1` [III-2]: 0.9 µM and more than 17 µM.
For the compound `CCCCOc1ncccc1-c1nc(-c2ccc(C(F)(F)F)cc2)c[nH]1` [III-3], the EC50 is 0.109 µM at human CB2 (setting [1]) and more than 17 µM at human CB1 (setting [2]).
Turning to `CCCCOc1ncccc1-c1nc2ccccc2[nH]1` [IV-2], the EC50 was 0.11 µM at human CB2 (setting [1]) and more than 17 µM on human CB1 (setting [2]).
For the compound `N#Cc1ccc(-c2ncccc2-c2nc3cc(Cl)c(Cl)cc3[nH]2)cc1` [IV-5], the EC50 on human CB2 (setting [1]) was 0.258 µM; at human CB1 (setting [2]), more than 17 µM.

(Values after patent US20100227845A1, “SUBSTITUTED 1,2,4-OXADIAZOLES AND ANALOGS THEREOF AS CB2 RECEPTOR MODULATORS, USEFUL IN THE TREATMENT OF PAIN, RESPIRATORY AND NON-RESPIRATORY DISEASES” (priority 2007, published 2010).)
